Laboratory results as given in US12544395B2, “Combination compositions comprising a beta-lactamase inhibitor and uses thereof” (priority 2018, dated 2026).
In brackets after ≈: the same amount, converted by molar mass. Several values for one entry are separate records, joined by “and”; a condition that tells them apart may be missing. Equal entries are not always repeated. Where two headings read alike, the source gives them in different places.

Tests used:
[1] = system: K. pneumoniae UNT-023 (KPC-2); test: MIC vs. septicemia model strain; assay type: cell-based; settings: Klebsiella pneumoniae, read-out: MIC vs. K. pneumoniae UNT-023 (KPC-2)
[2] = system: E. coli (UNT-204-1, TEM-1 plus CTX-M-15 producing); assay type: in vivo, C3H/HeJ mice; settings: for Log10 Change in CFU/Sample vs. untreated controls, Day 7, Bladder / Log10 Change in CFU/Sample vs. untreated controls, Day 7, Kidneys / Log10 Change in CFU/Sample vs. untreated controls, Day 7, Urine: SC, BID, 3 days
[3] = system: ESBL-expressing Enterobacteriaceae (n = 33); test: Broth microdilution MIC, ceftibuten/Compound 2 vs IV comparators; assay type: cell-based
[4] = system: AmpC/CMY-expressing Enterobacteriaceae (n = 44); test: as above; assay type: cell-based
SHV-5 [5] = target: T1, SHV-5 (Klebsiella pneumoniae, UniProt P0A3M1); test: Beta-lactamase enzyme inhibition (IC50); assay type: biochemical
T1 construct: expressed as native untagged proteins; made in house; host or cells: E. coli BL21(DE3)

CTX-M-15 = target: T2, CTX-M-15 (Escherichia coli, UniProt Q9EXV5); assay type: biochemical
T2 construct: expressed as native untagged proteins; made in house; host or cells: E. coli BL21(DE3)
Experimental: (§1) Assays (200 μl final volume) were performed in PBS in triplicate using 96-well microtiter plates. Cephalothin was used as the substrate for p99 AmpC and CTX-M-15 (50 μM for p99 AmpC; 75 μM for CTX-M-15) and reactions were initiated by addition of enzyme (0.2 nM p99 AmpC; 3 nM CTX-M-15). The decrease in the absorbance at λ260 nm was recorded continuously on a BioTek Powerwave XS2 microplate reader. […] SHV-5 reactions were initiated with 40 nM enzyme, using cefotaxime (100 μM) as the substrate. […] For KPC-2, imipenem (75 μM) was used as the substrate, and reactions initiated with 3 nM enzyme. Reaction progress was monitored by measuring the reduction in absorbance at λ300 nm in continuous fashion. […] Time courses for reaction progress were fit to the following equation, using Prism 7.04 (GraphPad Software, LaJolla, USA) to obtain kobs:
(§2) Off-rates for Compound 2 with the various beta-lactamases were determined by jump dilution experiments, performed in triplicate. Enzyme and inhibitor were incubated at room temperature for 10 minutes. Enzyme:inhibitor complexes were then diluted 800-fold into reaction buffer (50 mM Hepes, pH 7.0, 0.1 mg/ml BSA), and 20 μL of the diluted reaction immediately added to 180 μl of 110 μM nitrocefin in a 96-well microtiter plate, and the absorbance at λ 486 nm measured continuously on a BioTek Powerwave XS2 microplate reader. The resulting progress curves were fit to a single exponential, from which koff was derived. Half-life was determined using:
(§3) To determine Ki, plots of the inhibitor concentration versus inverse the initial velocity were fit to a linear equation, and the observed Ki corrected for substrate concentration and affinity by: […]

KPC-2 = target: T3, KPC-2 (Klebsiella pneumoniae, UniProt Q9F663); assay type: biochemical
T3 construct: expressed as native untagged proteins; made in house; host or cells: E. coli BL21(DE3)
Experimental: as §1, §2, §3

SHV-5 [6] = target: T1, SHV-5; assay type: biochemical
Experimental: as §1, §2, §3

p99 AmpC = target: T4, p99 AmpC (Enterobacter cloacae, UniProt P05364); assay type: biochemical
T4 construct: expressed as native untagged proteins; made in house; host or cells: E. coli BL21(DE3)

[7] = Single dose plasma pharmacokinetics (fasted and non-fasted); assay type: in vivo, Sprague-Dawley rats; settings: Sprague-Dawley, rat, iv, 5 mg/kg
[8] = as above; assay type: in vivo, Beagle dogs; settings: male, Beagle, dog, iv, 5 mg/kg
[9] = as above; assay type: in vivo, Cynomolgus monkeys; settings: male, Cynomolgus, cynomolgus monkey, iv, 5 mg/kg
[10] = Metabolic stability in liver S9; assay type: in vitro ADME; settings: liver S9; Human; test conc. 3 μM
[11] = Metabolic stability in liver S9; assay type: in vitro ADME, cynomolgus monkey; settings: cynomolgus, liver S9; Monkey; test conc. 3 μM
[12] = Metabolic stability in liver S9; assay type: in vitro ADME, Sprague-Dawley rat; settings: Sprague-Dawley, liver S9; Rat; test conc. 3 μM
[13] = Metabolic stability in intestinal S9; assay type: in vitro ADME; settings: intestinal S9; Human; test conc. 3 μM
[14] = Metabolic stability in intestinal S9; assay type: in vitro ADME, cynomolgus monkey; settings: cynomolgus, intestinal S9; Monkey; test conc. 3 μM
[15] = Metabolic stability in intestinal S9; assay type: in vitro ADME, beagle dog; settings: beagle, intestinal S9; Dog; test conc. 3 μM
[16] = Metabolic stability in plasma; assay type: in vitro ADME; settings: cynomolgus, Monkey, test conc. 3 μM
[17] = system: 21 beta-lactamase-producing Enterobacteriaceae strains; test: Neutropenic mouse thigh infection model, dose ranging; assay type: in vivo, mice

Nc1nc(/C(=C/CC(=O)O)C(=O)N[C@@H]2C(=O)N3C(C(=O)O)=CCS[C@H]23)cs1 [Ceftibuten, ceftibuten, reference compound]
MIC [1]: > 128 µg/mL
Log10 Change in CFU/Sample vs. untreated controls, Day 7, Bladder ([2]; 3 mg/kg): −0.03 Log10 CFU/Sample
Log10 Change in CFU/Sample vs. untreated controls, Day 7, Kidneys ([2]; 3 mg/kg): −0.44 Log10 CFU/Sample
Log10 Change in CFU/Sample vs. untreated controls, Day 7, Urine ([2]; 3 mg/kg): −1.24 Log10 CFU/Sample
Log10 Change in CFU/Sample vs. untreated controls, Day 7, Bladder ([2]; 10 mg/kg): −1.51 Log10 CFU/Sample
Log10 Change in CFU/Sample vs. untreated controls, Day 7, Kidneys ([2]; 10 mg/kg): −1.55 Log10 CFU/Sample
Log10 Change in CFU/Sample vs. untreated controls, Day 7, Urine ([2]; 10 mg/kg): −0.59 Log10 CFU/Sample
Log10 Change in CFU/Sample vs. untreated controls, Day 7, Bladder ([2]; 30 mg/kg): −2.08 Log10 CFU/Sample
Log10 Change in CFU/Sample vs. untreated controls, Day 7, Kidneys ([2]; 30 mg/kg): −1.57 Log10 CFU/Sample
Log10 Change in CFU/Sample vs. untreated controls, Day 7, Urine ([2]; 30 mg/kg): −2.28 Log10 CFU/Sample
reduction of bacterial load in the kidneys (average) ([2]; 100 mg/kg, SC twice daily for 3 days): 2.11 log10 CFU
Log10 Change in CFU/Sample vs. untreated controls, Day 7, Bladder ([2]; 100 mg/kg): −2.26 Log10 CFU/Sample
Log10 Change in CFU/Sample vs. untreated controls, Day 7, Kidneys ([2]; 100 mg/kg): −2.11 Log10 CFU/Sample
Log10 Change in CFU/Sample vs. untreated controls, Day 7, Urine ([2]; 100 mg/kg): −2.54 Log10 CFU/Sample
Log10 Change in CFU/Sample vs. untreated controls, Day 7, Bladder ([2]; 300 mg/kg): −1.83 Log10 CFU/Sample
Log10 Change in CFU/Sample vs. untreated controls, Day 7, Kidneys ([2]; 300 mg/kg): −2.14 Log10 CFU/Sample
Log10 Change in CFU/Sample vs. untreated controls, Day 7, Urine ([2]; 300 mg/kg): −3.37 Log10 CFU/Sample
Number of strains at MIC value 0.5 mg/L ([3]; ESBL-expressing (n = 33)): 2
Number of strains at MIC value 1 mg/L ([3]; ESBL-expressing (n = 33)): 4
Number of strains at MIC value 2 mg/L ([3]; ESBL-expressing (n = 33)): 2
Number of strains at MIC value 4 mg/L ([3]; ESBL-expressing (n = 33)): 8
Number of strains at MIC value 8 mg/L ([3]; ESBL-expressing (n = 33)): 5
Number of strains at MIC value 16 mg/L ([3]; ESBL-expressing (n = 33)): 1
Number of strains at MIC value […] ([3]; ESBL-expressing (n = 33)): 2 and 3
Number of strains at MIC value ≤0.06 mg/L ([3]; ESBL-expressing (n = 33)): 0
Number of strains at MIC value ≥32 mg/L ([3]; ESBL-expressing (n = 33)): 6
MIC50 ([3]; iv): 4 µg/mL (≈ 9.75 µM)
MIC90 ([3]; iv): ≥ 32 µg/mL
Number of strains at MIC value 0.5 mg/L ([4]; AmpC/CMY-expressing (n = 44)): 0
Number of strains at MIC value 1 mg/L ([4]; AmpC/CMY-expressing (n = 44)): 1
Number of strains at MIC value 2 mg/L ([4]; AmpC/CMY-expressing (n = 44)): 5
Number of strains at MIC value 4 mg/L ([4]; AmpC/CMY-expressing (n = 44)): 3
Number of strains at MIC value 8 mg/L ([4]; AmpC/CMY-expressing (n = 44)): 7
Number of strains at MIC value 16 mg/L ([4]; AmpC/CMY-expressing (n = 44)): 7
Number of strains at MIC value […] ([4]; AmpC/CMY-expressing (n = 44)): 0
Number of strains at MIC value ≤0.06 mg/L ([4]; AmpC/CMY-expressing (n = 44)): 1
Number of strains at MIC value ≥32 mg/L ([4]; AmpC/CMY-expressing (n = 44)): 20
MIC50 ([4]; iv): ≥ 32 µg/mL
MIC90 ([4]; iv): ≥ 32 µg/mL

CCC(=O)N[C@H]1Cc2cccc(C(=O)O)c2OB1O [Compound 2, (R)-2-hydroxy-3-propionamido-3,4-dihydro-2H-benzo[e][1,2]oxaborinine-8-carboxylic acid]
IC50 (SHV-5 [5]): 368 nM
Ki (CTX-M-15): 10 nM
k−2 (CTX-M-15): 4.5 ± 0.1 10^−4 s^−1
t1/2 (CTX-M-15): 0.433 ± 0.01 h
Ki (KPC-2): 110 nM
k−2 (KPC-2): 2.5 ± 0.1 10^−4 s^−1
t1/2 (KPC-2): 0.767 ± 0.0333 h
Ki (SHV-5 [6]): 41 nM
k−2 (SHV-5 [6]): 12.7 ± 0.07 10^−4 s^−1
t1/2 (SHV-5 [6]): 6.5 ± 0.04 min
k−2 (p99 AmpC): 24 ± 0.5 10^−4 s^−1
t1/2 (p99 AmpC): 5.0 ± 0.1 min
AUC(0-inf) [7]: 3710 ng·h/mL
Cmax [7]: 7100 ng/mL
AUC(0-inf) [8]: 25500 ng·h/mL
Cmax [8]: 22400 ng/mL
AUC(0-inf) [9]: 38400 ng·h/mL
Cmax [9]: 38600 ng/mL
half-life at 3 μM [10]: > 2 h
half-life at 3 μM [11]: > 2 h
half-life at 3 μM [12]: > 2 h
half-life at 3 μM [13]: > 2 h
half-life at 3 μM [14]: > 2 h
half-life at 3 μM [15]: > 2 h
half-life at 3 μM [16]: > 2 h
rescue of ceftibuten activity ([17]; ceftibuten 300 mg q8h human-simulated regimen with Compound 2 q8h): rescued ceftibuten activity in all 21 beta-lactamase-expressing strains
Compound 2 median exposure at which net bacterial stasis was achieved ([17]; ceftibuten 300 mg q8h human-simulated regimen, interquartile range 3.06-18.56): 8.98 mg·h/L
